Consider six compounds from paper PMC11123692, “Sugar-Based Surfactants: Effects of Structural Features on the Physicochemical Properties of Sugar Esters and Their Comparison to Commercial Octyl Glycosides” (Molecules, 2024).

Values joined by “and” are separate entries in the source; they are usually repeats but may differ in a detail not shown here. Equal values may be shown once. Read-outs that look alike come from different tables or passages of the source.

For data set [1] the following is noted: cited from earlier work.
The conditions of data set [2]: cited from earlier work. The source holds these as a separate data set.
Data set [3] can be described thus: Equilibrium surface tension, Wilhelmy plate method (CMC, γcmc, Amin and derived quantities). It counts as physicochemical. The settings on record: for Amin: from Gibbs adsorption equation. The method, then:
CMCs are determined from the inflections in the plots of equilibrium surface tension against the logarithm of the concentration. For the interested reader, the Gibbs-free energy of micellization, ΔGmic, the Gibbs-free energy of adsorption, ΔGads, and the efficiency of surfactant adsorption pC20 were calculated based on their definitions, as presented in Table 2.
The surface activity reflects the amphiphiles’ adsorption behavior on the air–aqueous solution interface. The surface tension (γ) was obtained using the Wilhelmy plate method with a K100 Processor Tensiometer (KRUSS, Hamburg, Germany). Both the critical micellar concentration (CMC) and equilibrium surface tension at the CMC (γcmc) were derived from the typical plot of surface tension (γ) against the logarithm of concentration (Log C). The surface excess (Γmax) and minimal area per molecule at the air–aqueous solution interface (Amin) at different temperatures were calculated from the Gibbs adsorption equation [3, 46]:(2) Γmax=−1/2.303RT(dγ/dlogc) and (3) Amin=10^20/NAΓmax where R is the ideal gas constant, 8.31 J∙mol^−1∙K^−1; T is the measuring temperature, K; γ is the surface tension, N/m; c is the concentration, mol.L^−1; Amin is the minimal area per molecule, Å^2, and NA is Avogadro’s number, 6.022·10^23 mol^−1.
For each molecule, several solutions of a wide range of concentrations were prepared. Before measuring, each solution was finely homogenized with the help of a magnetic stirring bar. The stirring time was fixed at 30 min in all cases. […] Then, measurements were performed once for each concentration, at the solution preparation’s temperature, with an uncertainty of ±1 °C.

Data set [4] is described as follows: Krafft temperature (Tk) by visual examination and DSC of molecule/water systems. The format is physicochemical. As to conditions: in water; observation and DSC; average ± SD of at least two measurements. The source says:
(§1) Water solubility reflects the ability of a particular molecule to dissolve and its interaction with water. To characterize the water solubility of most amphiphile molecules, especially the ionic surfactants, the Krafft point (Tk) is often used, referring to the critical temperature above which micelles form or the melting point of the hydrated solid surfactant. Two general approaches were used to measure the Tks of the molecules investigated herein: (1) a visual examination of the dissolution phenomenon for binary molecule/water systems, and (2) a quantitative measurement by using differential scanning calorimetry (DSC) analysis. The visual observation procedure is detailed below. We start with adding the molecule into 5–50 mL water, in a concentration range between 10^−2 mM and 10^3 mM (corresponding to a range of a surfactant mass concentration well below 20%), keeping the suspension under stirring for a certain time at room temperature (RT). Consequently, molecules can be classified into two major types: those soluble in water at RT and others insoluble at RT, with the solubility limit being called S (expressed in mM). The aspect of the sample, either transparent or turbid, is determined by direct visual examination. Tk determination with DSC is particularly applicable in the case of molecules insoluble at RT, for which a concentrated binary molecule/water mixture with a mass fraction of 20% of each molecule (C >> CMC in most cases) was prepared at 65 °C under stirring for 30 min to obtain a homogeneous system. These pre-homogenized aqueous systems were cooled and conserved in a refrigerator at 4 °C for a suitable period (>7 days), during which equilibrated hydrated crystals formed and precipitated. Then, for each molecule, about a 200–400 mg crystal sample was taken and put into the calorimeter cell. The first equilibrium phase was programmed at 4 °C for 1 h, followed by a slow heating stage from 4 °C to 65 °C at a rate of 0.5 °C/min. Tk was determined based on the location of the endothermic peak on the DSC curve, if any. All agitations were performed using a standard magnetic hotplate stirrer, MR 3001K (Heidolph Instruments, Schwabach, Germany). DSC curves were obtained from a commercial µDSC7 evo calorimeter (SETARAM Instrumentation, Caluire-et-Cuire, France). Tks are reported as the averages of at least two measurements as well as their standard deviations.

Data set [5] in a line: Water solubility limit by visual examination (transparent/turbid). It counts as physicochemical. As to conditions: water; for solubility: thermodynamic from solid, read-out: Solubility Limit (S/mM).
Source text: as §1, with “We start with adding the molecule into 5–50 mL water, in a concentration range between 10^−2 mM and 10^3 mM (corresponding to a range of a surfactant mass concentration well below 20%), keeping the suspension under stirring for a certain time at room temperature (RT).” left out

On the set-up of data set [6]: method as in doi:10.1039/C4MD00122B. The settings on record: ITC at 25 °C; cited from earlier work.
Data set [7] in a line: Precipitation on cooling previously heated 50 mM aqueous solutions. The format is physicochemical. The settings on record: 50 mM in water. As to the method: For commercial alkyl glucosides, the Tk decreases in the following sequence: C8αGlc > C8βGal >> C8βGlc ≈ C8αGal. […] The obtained Tk for C8αGlc is around 40 °C in accordance with previously published values. However, as determined by the same experimental protocol, the Tk for C8βGal is about 29 °C, much lower than 42 °C derived from the phase diagram reported by Sakya et al. A possible explanation is that Sakya et al. synthesized and purified C8βGal by themselves, whereas we carried our measurements on commercially purchased C8βGal. […] For this reason, we assume that many researchers have been able to investigate their aqueous solutions at 25 °C, as mentioned in the introduction. In addition, when cooling the previously heated solutions with the same molecular concentration of 50 mM, we noted that C8αGlc precipitated much faster than C8βGal. […] This may, to some extent, be explained by a more favorable crystal structure for C8αGlc than C8βGal. With regard to C8αGal, which is presented in commercial samples as a highly viscous liquid, we expect it to have the weakest crystal structure and a very low Tk value. However, our experimental methods cannot give its exact Tk. […]

As for `CCCCCCCC(=O)OC[C@H]1O[C@@H](O)[C@H](O)[C@@H](O)[C@@H]1O` [6-O-octanoyl-β-glucose], in data set [1] (above its Tk), the solubility limit is 25 mg/mL and > 80 mM. Further, the CMC in data set [2] (ref 20) was 18 mM.

Regarding `CCCCCCCCOC(=O)[C@H]1O[C@@H](OC)[C@H](O)[C@@H](O)[C@H]1O` [MeβGal(C=O)OC8, methyl octyl galacturonate], in data set [3] (T = 40 °C), the C20 amounted to 1.2 mM, the pC20 stood at 2.9, the ΔGads was -31 kJ/mol and the ΔGmic is -20.9 kJ/mol. In data set [3] (T = 40 °C), the Amin was determined as 42.9 ± 3.9 Å^2/molecule. In data set [3] (T = 40 °C (T > Tk)), the CMC is listed as 6.9 ± 0.4 mM and the γcmc came to 29.4 ± 0.36 mN/m. For the same compound, the “Tk (Krafft temperature)” value in data set [4] worked out at 31.6 ± 0.9 °C. Also, in data set [5] (at RT), the “Solubility Limit (S/mM)” value is on record as “insoluble”. Moreover, in data set [5] (at T > Tk), the “Solubility Limit (S/mM)” value is reported as “high solubility limits” and the solubility is more than 100 mM.

In data set [3] (T = 25 °C), `CCCCCCCC(=O)OC[C@H]1O[C@@H](OC)[C@H](O)[C@@H](O)[C@H]1O` [MeβGalO(C=O)C7, Methyl 6-O-octanoyl-β-D-galactopyranoside] gave a C20 of 0.7 mM, a pC20 of 3.1, a ΔGads of -30.5 kJ/mol and a ΔGmic of -19.2 kJ/mol. For the same compound, the Amin in data set [3] (T = 25 °C) was 42.7 ± 2.4 Å^2/molecule. Moreover, in data set [3] (T = 25 °C (T > Tk)), the CMC stood at 8.5 ± 0.5 mM and the γcmc turned out to be 28.3 ± 0.35 mN/m. Besides, the “Tk (Krafft temperature)” value in data set [4] is less than 4 °C. In addition, the “Solubility Limit (S/mM)” value in data set [5] (at T > Tk) is given as “high solubility limits”. Also, in data set [5] (at RT), the solubility is more than 100 mM.

With `CCCCCCCCO[C@H]1O[C@H](CO)[C@H](O)[C@H](O)[C@H]1O` [Molecule C8αGal, Octyl α-D-galactopyranoside, reference compound], in data set [6], the CMC is recorded as 30.2 ± 0.4 mM. Besides, in data set [3] (T = 25 °C), the C20 came to 3.8 mM, the pC20 worked out at 2.4, the ΔGads was -26.8 kJ/mol and the ΔGmic is -15.1 kJ/mol. The same compound yielded an Amin in data set [3] (T = 25 °C) of 45.8 ± 0.9 Å^2/molecule. In data set [3] (T = 25 °C (T > Tk)), the CMC was 51.7 mM and 51.7 ± 1.5 mM; the γcmc was 29.5 ± 0.2 mN/m. For the same compound, the “Tk (Krafft temperature)” value in data set [4] was less than 4 °C. In data set [5] (at RT), the solubility was more than 100 mM.

On to `CCCCCCCCO[C@H]1O[C@H](CO)[C@@H](O)[C@H](O)[C@H]1O` [Molecule C8αGlc, Octyl α-D-glucopyranoside, reference compound], for which the “precipitation when cooling the previously heated solution” value in data set [7] is listed as “within an hour”. In data set [3] (T = 50 °C), this compound displayed a C20 of 2.8 mM, a pC20 of 2.6, a ΔGads of -29.3 kJ/mol and a ΔGmic of -19.7 kJ/mol. Also, in data set [3] (T = 50 °C), the Amin turned out to be 43 ± 1.8 Å^2/molecule. In data set [3] (T = 50 °C (T > Tk)), the CMC is 15.5 mM and 15.5 ± 0.5 mM; the γcmc is 30.7 mN/m and 30.7 ± 0.3 mN/m. In addition, in data set [2] (Wilhelmy plate method at 25 °C), the CMC is listed as 12 mM and the γcmc is 30.5 mN/m. In addition, the “Solubility Limit (S/mM)” value in data set [5] (at RT) was “insoluble”. For the same compound, the solubility in data set [5] (at T > Tk) was more than 100 mM.

With `CCCCCCCCO[C@@H]1O[C@H](CO)[C@@H](O)[C@H](O)[C@H]1O` [Molecule C8βGlc, octyl β-D-glucopyranoside, reference compound], the “solubility relative to octyl-α-D-glucoside (C8αGlc)” value in data set [1] (ref 25) is recorded as “about seven times larger”. In data set [3] (T = 25 °C), this compound showed a C20 of 2.7 mM, a pC20 of 2.6, a ΔGads of -26.8 kJ/mol and a ΔGmic of -17.2 kJ/mol. For the same compound, the Amin in data set [3] (T = 25 °C) was 38.5 ± 1.9 Å^2/molecule. In addition, in data set [3] (T = 25 °C (T > Tk)), the CMC is 21.2 mM and 21.2 ± 0.8 mM; the γcmc is listed as 31.0 ± 0.15 mN/m. Besides, in data set [2] (ref 23), the Amin is recorded as 38 Å^2/molecule. Moreover, in data set [2] (ref 46), the Amin is on record as 42 Å^2/molecule. For the same compound, the solubility in data set [5] (at RT) was more than 100 mM.
